Assay results published in patent US20110172163A1, “Novel Protease Inhibitors” (QUEENSLAND UNIVERSITY OF TECHNOLOGY, priority 2008, published 2011).
Peptide text beside a SMILES is read from it. * marks the point of attachment. pNA = O=[N+]([O-])c1ccc(N*)cc1

Columns and labels:
[1] = biological target: KLK4 (Homo sapiens, UniProt Q9Y5K2); assay: Kinetic studies of para-nitroanilide substrates with KLK4; format: biochemical; design: pro-region of PSA (KLK3), replacing the native KLK4 pro-region (only if the E. coli preparation was used) (N, cleaved yes); made in house; conditions: relative to the parent substrate (Bz-FVR-pNA or FVQR-pNA)
KLK4, sequence (Q9Y5K2 31-254): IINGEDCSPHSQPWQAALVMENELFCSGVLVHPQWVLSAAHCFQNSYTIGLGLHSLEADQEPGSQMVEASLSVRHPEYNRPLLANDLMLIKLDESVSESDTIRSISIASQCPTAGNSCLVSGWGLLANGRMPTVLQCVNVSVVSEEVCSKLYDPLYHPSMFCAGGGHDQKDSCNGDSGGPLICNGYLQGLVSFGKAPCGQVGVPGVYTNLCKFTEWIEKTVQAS
Protocol: Human recombinant KLK4 was expressed in E. coli using a previously described chimeric KLK4 plasmid construct where the native pro-region was replaced with the pro-region of PSA, enabling autoactivation. Protein was expressed as inclusion bodies which were isolated and solubilised as described previously to yield 90% pure KLK4. Protein refolding was performed by dilution into 100 volumes of refolding buffer I (2 M urea, 0.1M NaCl, 5 mM GSH, 0.5 mM GSSG, 10 mM benzamidine, 50 mM tris HCl pH 8.0, 2 mM CaCl2) over 44 hours before further dilution into 3 volumes refolding buffer II (refolding buffer I with 0.5 M urea 0.5 mM GSH, 0.05 mM GSSG, 2 mM CaCl2) over another 24 hours. Dialysis was performed as previously described (with additional 2 mM CaCl2 to reduce aggregation) before concentration using UNO sphere Q (Biorad) eluting with tris buffered saline (pH 7.5)/2 mM CaCl2. […]
Kinetic Studies Active site titration was carried out according to Beynon et al., replacing α1-proteinase inhibitor with soybean trypsin inhibitor. Enzymatic activity assays were performed with 4.9 nM KLK4 and substrate concentrations in the range of 0-600 μM in 300 μL of assay buffer with hydrolysis monitored over 5 minutes as described for the substrate screen. […]

[2] = comparison value, source not given; cited from earlier work

Row | SMILES | reduction of kcat [1] [%] | half life [2] [h]
1 | CC(=O)N[C@@H](Cc1ccccc1)C(=O)N[C@H](C(=O)N[C@@H](CCCNC(=N)N)C(=O)Nc1ccc([N+](=O)[O-])cc1)C(C)C [Ac-FVR-pNA] (Ac-Phe-Val-Arg-pNA) | 47 | 
2 | CC(C)c1nc(CN(C)C(=O)N[C@H](C(=O)N[C@@H](Cc2ccccc2)C[C@H](O)[C@H](Cc2ccccc2)NC(=O)OCc2cncs2)C(C)C)cs1 [ritonavir] |  | 3.8
